According to ChEMBL document CHEMBL3885861, “Open TG-GATES”:

Organism: Rattus norvegicus
Assay: Open TG-GATES - Regimen: Daily Repeat
Type: toxicity, organism-based, Sprague-Dawley
Set-up: regimen Daily Repeat, gender Male, age 6 weeks
Settings: in vivo, po, 1 mg/kg, route gavage, dose level Low; for APTT / Bas / Eos / Fbg / Ht / Lym / MCHC / MCV / Mono / Neu / PT / Plat / RBC / Ret / WBC / Hb / MCH: tissue Blood; for KIDNEY_L / KIDNEY_R / KIDNEY_TOTAL: tissue Kidney; for LIVER: tissue Liver
[1] = 72 h, tissue Plasma, time 3 day
[2] = […], tissue Plasma, time 14 day
[3] = […], tissue Plasma, time 28 day

C#C[C@]1(O)CC[C@H]2[C@@H]3CCc4cc(O)ccc4[C@H]3CC[C@@]21C [ETHINYL ESTRADIOL]
TERMINAL_BW (72 h, time 3 day): 204.6 g
APTT (72 h, time 3 day): 17 s
Bas (72 h, time 3 day): 0%
Eos (72 h, time 3 day): 1%
Fbg (72 h, time 3 day): 309.6 mg/dL
Ht (72 h, time 3 day): 39.1%
Lym (72 h, time 3 day): 82.4%
MCHC (72 h, time 3 day): 34.2%
MCV (72 h, time 3 day): 62.3 fL
Mono (72 h, time 3 day): 3.6%
Neu (72 h, time 3 day): 12.6%
PT (72 h, time 3 day): 13.1 s
Plat (72 h, time 3 day): 107.6 x10_4/uL
RBC (72 h, time 3 day): 627.4 x10_4/ul
Ret (72 h, time 3 day): 5.1%
WBC (72 h, time 3 day): 72 x10_2/uL
KIDNEY_L (72 h, time 3 day): 1 g
KIDNEY_R (72 h, time 3 day): 1 g
KIDNEY_TOTAL (72 h, time 3 day): 2 g
LIVER (72 h, time 3 day): 11.7 g
ALP [1]: 2115.4 IU/L
ALT [1]: 41.2 IU/L
AST [1]: 84.2 IU/L
BUN [1]: 9.4 mg/dL
CRE [1]: 0.2 mg/dL
Ca [1]: 10.6 mg/dL
Cl [1]: 107.4 meq/L
DBIL [1]: 0.038 mg/dL
IP [1]: 7.4 mg/dL
K [1]: 4 meq/L
LDH [1]: 95.4 IU/L
Na [1]: 144 meq/L
PL [1]: 82.6 mg/dL
RALB [1]: 2.6 g/dL
TBIL [1]: 0.07 mg/dL
TC [1]: 29.4 mg/dL
TG [1]: 73.6 mg/dL
TP [1]: 5.6 g/dL
gamma-GTP [1]: 1.2 IU/L
TERMINAL_BW ([…], time 14 day): 243.2 g
TERMINAL_BW ([…], time 28 day): 264.8 g
APTT ([…], time 14 day): 23 s
Bas ([…], time 14 day): 0%
Eos ([…], time 14 day): 1%
Fbg ([…], time 14 day): 328.6 mg/dL
Hb ([…], time 14 day): 13.9 g/dL
Ht ([…], time 14 day): 38.9%
Lym ([…], time 14 day): 77.6%
MCH ([…], time 14 day): 20.1 pg
MCHC ([…], time 14 day): 35.6%
MCV ([…], time 14 day): 56.3 fL
PT ([…], time 14 day): 13.5 s
Plat ([…], time 14 day): 120.8 x10_4/uL
RBC ([…], time 14 day): 690.2 x10_4/ul
Ret ([…], time 14 day): 1.8%
WBC ([…], time 14 day): 80.9 x10_2/uL
APTT ([…], time 28 day): 27.7 s
Bas ([…], time 28 day): 0%
Eos ([…], time 28 day): 1%
Fbg ([…], time 28 day): 328.6 mg/dL
Hb ([…], time 28 day): 14.3 g/dL
Ht ([…], time 28 day): 39%
Lym ([…], time 28 day): 77.6%
MCH ([…], time 28 day): 19.9 pg
MCHC ([…], time 28 day): 36.7%
MCV ([…], time 28 day): 54.2 fL
Mono ([…], time 28 day): 2.6%
Neu ([…], time 28 day): 18.8%
PT ([…], time 28 day): 13.6 s
Plat ([…], time 28 day): 113.5 x10_4/uL
RBC ([…], time 28 day): 720.8 x10_4/ul
Ret ([…], time 28 day): 2.4%
WBC ([…], time 28 day): 82.1 x10_2/uL
KIDNEY_L ([…], time 14 day): 1 g
KIDNEY_R ([…], time 14 day): 1 g
KIDNEY_TOTAL ([…], time 14 day): 2 g
KIDNEY_L ([…], time 28 day): 1 g
KIDNEY_R ([…], time 28 day): 1 g
KIDNEY_TOTAL ([…], time 28 day): 2 g
LIVER ([…], time 14 day): 13.6 g
LIVER ([…], time 28 day): 14.4 g
ALP [2]: 1995.4 IU/L
ALT [2]: 41 IU/L
AST [2]: 53.8 IU/L
BUN [2]: 13.2 mg/dL
CRE [2]: 0.2 mg/dL
Cl [2]: 105.8 meq/L
DBIL [2]: 0.03 mg/dL
IP [2]: 5.7 mg/dL
K [2]: 3.9 meq/L
LDH [2]: 60.8 IU/L
Na [2]: 143.8 meq/L
PL [2]: 105.4 mg/dL
RALB [2]: 2.9 g/dL
TBIL [2]: 0.084 mg/dL
TC [2]: 33.4 mg/dL
TG [2]: 68 mg/dL
TP [2]: 6.5 g/dL
ALP [3]: 1546.2 IU/L
ALT [3]: 37.8 IU/L
AST [3]: 50.6 IU/L
BUN [3]: 14 mg/dL
CRE [3]: 0.3 mg/dL
Ca [3]: 10.8 mg/dL
Cl [3]: 105.4 meq/L
DBIL [3]: 0.036 mg/dL
IP [3]: 5.3 mg/dL
K [3]: 3.6 meq/L
LDH [3]: 38 IU/L
Na [3]: 144 meq/L
PL [3]: 147 mg/dL
RALB [3]: 3 g/dL
